The source made the active and inactive calls. The calls are words filed in the database; no cut-off is given here. A value given as a limit tells only on which side of the number the result lay.

These results are taken from ChEMBL document CHEMBL4033669, “Guanylthiourea derivatives as potential antimalarial agents: Synthesis, in vivo and molecular modelling studies” (Eur J Med Chem, 2017).

The test system of data set [1] is Plasmodium berghei. Description: Antimalarial activity against Plasmodium berghei in Swiss mouse inoculated with parasite infected red blood cells assessed as mean survival time at 100 mg/kg/day, ip administered 4 hrs post infection on day 0, 1, 2 , 3. It is filed as functional.
In data set [2] the test system is Mus musculus. Description: Toxicity in Swiss mouse inoculated with parasite infected red blood cells assessed as mortality at 100 mg/kg/day, ip administered 4 hrs post infection on day 0, 1, 2 , 3 measured on day 4. The data set is classed as organism-based. The conditions noted are these: in vivo.
Data set [3] relates to Plasmodium berghei. Description: Antimalarial activity against Plasmodium berghei in Swiss mouse inoculated with parasite infected red blood cells assessed as reduction in parasitemia at 100 mg/kg/day, ip administered 4 hrs post infection on day 0, 1, 2 , 3 measured on day 4 post infection by giemsa staining based microscopic method. The data set is classed as functional, organism-based.

A short description of data set [4]: Oral bioavailability in Sprague-Dawley rat at 10 mg/kg, administered via gavage. It is filed as ADME, organism-based. The note with it: in vivo.
Data set [5] can be described thus: Apparent permeability across apical to basolateral side in human Caco2 cells at 50 uM after 90 mins by LC-MS/MS method. The data set is classed as ADME, cell-based. The conditions noted are these: Caco-2.
The subject of data set [6] is Plasmodium berghei. Description: Antimalarial activity against Plasmodium berghei in Swiss mouse inoculated with parasite infected red blood cells assessed as reduction in parasitemia at 100 mg/kg/day, ip administered 4 hrs post infection on day 0, 1, 2 , 3 measured on day 7 post infection by giemsa staining based microscopic method. The data set is classed as functional, organism-based.

For `N=C(N)/N=C(\N)SCCCOc1ccc(Cl)c(Cl)c1`, the MST in data set [1] stood at 24 days. On to `N#Cc1ccc(CSC(=N)NC(=N)N)cc1`, for which the Activity result in data set [2] is reported as “Toxic”. As for `N=C(N)NC(=N)SCc1cccc(C(F)(F)F)c1`, in data set [2], the Activity entry was “Toxic”. In data set [3], the result was inactive. Consider `N=C(N)/N=C(\N)SCc1cccc(Cl)c1`, for which, in data set [2], the Activity entry is recorded as “Toxic”. Further, the outcome in data set [3] was inactive. `N=C(N)/N=C(\N)SCc1ccc(F)cc1`: in data set [2], the Activity entry was “Toxic”. In data set [3], the result was inactive. Turning to `N=C(N)/N=C(\N)SCc1cccc(CS/C(N)=N/C(=N)N)c1`, the MST in data set [1] turned out to be 20 days. One may read the bioavailability as dose-corrected exposure relative to a reference, in per cent. Low values mean little systemic uptake, high ones much systemic uptake. As usually defined, the Papp A→B is the apparent permeability from the apical to the basolateral side of a cell layer. In data set [4], `CC1(C)N=C(N)N=C(N)N1OCCCOc1cc(Cl)c(Cl)cc1Cl` gave a bioavailability below 1%. In data set [5], the Papp A→B at 1.5 h, 50 µM is below 0.12 ×10⁻⁶ cm/s. On to `N=C(N)/N=C(\N)SCCCOc1c(Cl)cc(Cl)cc1Cl`, for which the MST in data set [1] worked out at 24 days. In the case of `N#Cc1ccc(CS/C(N)=N/C(=N)N)cc1`, the result in data set [3] was inactive. With `N=C(N)/N=C(\N)SCc1ccc(OCc2cccc(Br)c2)cc1`, the Activity entry in data set [2] is reported as “Toxic”. Also, in data set [3], the outcome was inactive. As for `N=C(N)/N=C(\N)SCCOc1cccc(Br)c1`, the MST in data set [1] was 25 days. Turning to `N=C(N)/N=C(\N)SCCOc1nc2ccccc2s1`, the result in data set [6] was Active. Turning to `N=C(N)/N=C(\N)SCCCOc1ccc(I)cc1`, in data set [1], the MST was 26 days.

Consider `N=C(N=C(N)N)SCc1cccc(I)c1`, for which the Activity result in data set [2] is recorded as “Toxic”. In data set [3], the result was inactive. The like results for `N=C(N)/N=C(\N)SCc1ccccc1[N+](=O)[O-]` were, in that order, “Toxic” and “inactive”. As to `N=C(N)NC(=N)SCc1cccc([N+](=O)[O-])c1`, the Activity entry in data set [2] is on record as “Toxic”. Further, in data set [3], the result was inactive.

As to `N=C(N)/N=C(\N)SCc1ccccc1C(F)(F)F`, the Activity entry in data set [2] is “Toxic”. The outcome in data set [3] was inactive. The matching figures for `Cc1ccc(CSC(=N)N=C(N)N)cc1`: “Toxic” and “inactive”.
